From patent publication US8158792B2, “Spiropiperidines for use as tryptase inhibitors” (Janssen Pharmaceutica N.V., priority 2007, dated 2012) come the findings set out here.

The experiment has as its target human lung tryptase. Nature of the experiment: β-Tryptase In-Vitro Enzyme Assay. Type of experiment: biochemical. Conditions: human lung tryptase 1 nM, substrate H-D-HHT-Ala-Arg-pNa 500 μM, pH 7.4, room temperature. The protocol: The β-tryptase assay was conducted with human lung tryptase (Cortex Biochem #CP3033) in an aqueous buffer (10 mM Tris, 10 mM Hepes, 150 mM NaCl, 0.1% PEG 8000, pH 7.4) using the chromogenic substrate H-D-HHT-Ala-Arg-pNa. […] Percent inhibition was calculated by comparing the initial reaction velocity of samples without inhibitor to those with inhibitor. The initial reaction velocities were analyzed using Microsoft Excel.
The molecule `NCc1ccc2c(c1)C1(CCN(C(=O)c3cc(-c4ccccc4)cs3)CC1)CO2` [Cpd 288, 1-(4-phenyl-thien-2-yl)carbonyl-5′-aminomethyl-spiro[piperidine-4,3′-(2H)-benzo[b]furan]] displayed an IC50 of 280 nM.

On to `CCN1CC2(CCN(C(=O)c3ccc(C#Cc4ccccc4)o3)CC2)c2cc(CN)ccc21` [Cpd 320, 1-(5-phenylethynyl-furan-2-yl)carbonyl-1′-ethyl-5′-aminomethyl-spiro[piperidine-4,3′-(2H)-indole]], for which the half-inhibitory concentration (IC50) is 280 nM.

As to `NCc1ccc2c(c1)C1(CCN(C(=O)c3cc4sccc4s3)CC1)CO2` [Cpd 204, 1-thieno[3,2-b]thien-2-ylcarbonyl-5′-aminomethyl-spiro[piperidine-4,3′-(2H)-benzo[b]furan]], the IC50 was 89 nM.

For `COC(=O)CCN1CC2(CCN(C(=O)c3ccc(C#Cc4ccccc4)o3)CC2)c2cc(CN)ccc21` [Cpd 321, 1-(5-phenylethynyl-furan-2-yl)carbonyl-1′-(2-methoxycarbonyl-ethyl)-5′-aminomethyl-spiro[piperidine-4,3′-(2H)-indole]], the IC50 stood at 160 nM. Against the preceding molecule, the IC50 is about 1.8-fold higher.

Take `Cc1nn(-c2ccc(C(=O)N3CCC4(CC3)COc3ccc(CN)cc34)o2)c(C)c1Cl` [Cpd 221, 1-[5-(3,5-dimethyl-4-chloro-pyrazol-1-yl)-furan-2-yl]carbonyl-5′-aminomethyl-spiro[piperidine-4,3′-(2H)-benzo[b]furan]]: it took 550 nM to reach half-maximal inhibition (IC50).

`CSc1cccc(CC(=O)N2CCC3(CC2)COc2ccc(CN)cc23)c1` [Cpd 103, 1-(3-methylthio-benzyl)carbonyl-5′-aminomethyl-spiro[piperidine-4,3′-(2H)-benzo[b]furan]] showed an IC50 of 960 nM.

As to `Cc1nc2cc(C(=O)N3CCC4(CC3)COc3ccc(CN)cc34)ccc2n1-c1ccccc1` [Cpd 14, 1-(1-phenyl-2-methyl-benzoimidazol-5-yl)carbonyl-5′-aminomethyl-spiro[piperidine-4,3′-(2H)-benzo[b]furan]], the 50% inhibitory concentration (IC50) amounted to 3700 nM.

The molecule `NCc1ccc2c(c1)C1(CCN(C(=O)c3cccc(NC(N)=S)c3)CC1)CO2` [Cpd 5, 1-(3-aminothiocarbonylamino-phenyl)carbonyl-5′-aminomethyl-spiro[piperidine-4,3′-(2H)-benzo[b]furan]] registered a half-inhibitory concentration (IC50) of 450 nM.

The molecule `CNC(=N)c1ccc2c(c1)C1(CCN(C(=O)c3ccc(C#Cc4ccccc4)o3)CC1)CO2` [Cpd 310, 1-(5-phenylethynyl-furan-2-yl)carbonyl-5′-[methylamino(imino)methyl]-spiro[piperidine-4,3′-(2H)-benzo[b]furan]] displayed an IC50 of 780 nM.

Turning to `CC(=O)c1ccc(C(=O)N2CCC3(CC2)COc2ccc(CN)cc23)cc1` [Cpd 67, 1-(4-methylcarbonyl-phenyl)carbonyl-5′-aminomethyl-spiro[piperidine-4,3′-(2H)-benzo[b]furan]], the half-maximal inhibitory concentration (IC50) amounted to 4800 nM.

Turning to `CS(=O)(=O)CS(=O)(=O)N1CC2(CCN(C(=O)c3ccc(C#Cc4ccccc4)o3)CC2)c2cc(CN)ccc21` [Cpd 348, 1-(5-phenylethynyl-furan-2-yl)carbonyl-1′-(methylsulfonylmethyl)sulfonyl-5′-aminomethyl-spiro[piperidine-4,3′-(2H)-indole]], the IC50 was 24 nM.

`Cc1c(C(=O)N2CCC3(CC2)COc2ccc(CN)cc23)oc2cc(-c3ccccc3)ccc12` [Cpd 228, 1-(3-methyl-6-phenyl-benzo[b]furan-2-yl)carbonyl-5′-aminomethyl-spiro[piperidine-4,3′-(2H)-benzo[b]furan]] displayed a half-inhibitory concentration (IC50) of 37 nM.

Turning to `NCc1ccc2c(c1)C1(CCN(C(=O)c3ccc(C(=O)c4ccccc4)cc3)CC1)CO2` [Cpd 6, 1-(4-benzoyl-phenyl)carbonyl-5′-aminomethyl-spiro[piperidine-4,3′-(2H)-benzo[b]furan]], it took 5800 nM to reach half-maximal inhibition (IC50). Compared with the last molecule, the IC50 is about 160-fold higher.

As to `CC(C)(C)c1ccc(C(=O)N2CCC3(CC2)COc2ccc(CN)cc23)s1` [Cpd 266, 1-(5-tert-butyl-thien-2-yl)carbonyl-5′-aminomethyl-spiro[piperidine-4,3′-(2H)-benzo[b]furan]], 200 nM corresponded to half-maximal inhibition (IC50).

In the case of `NCc1ccc2c(c1)C1(CCN(C(=O)c3ccc(C#Cc4ccccc4)o3)CC1)CN2C(=O)CS(=O)(=O)O` [Cpd 335, 1-(5-phenylethynyl-furan-2-yl)carbonyl-1′-(hydroxysulfonylmethyl)carbonyl-5′-aminomethyl-spiro[piperidine-4,3′-(2H)-indole]], the half-maximal inhibitory concentration (IC50) was found to be 20 nM.

Turning to `NCc1ccc2c(c1)C1(CCN(C(=O)c3ccc(COc4ccccc4Br)o3)CC1)CO2` [Cpd 213, 1-[5-(2-bromo-phenoxymethyl)-furan-2-yl]carbonyl-5′-aminomethyl-spiro[piperidine-4,3′-(2H)-benzo[b]furan]], inhibition was half-maximal at 240 nM (IC50).

With `NCc1ccc2c(c1)C1(CCN(C(=O)/C=C/c3cccc(F)c3)CC1)CO2` [Cpd 161, (E)-1-(3-fluoro-phenylethenyl)carbonyl-5′-aminomethyl-spiro[piperidine-4,3′-(2H)-benzo[b]furan]], it took 53 nM to reach half-maximal inhibition (IC50). Compared with the last molecule, the IC50 is about 4.5-fold lower.

`COCCOc1cccc(/C=C/C(=O)N2CCC3(CC2)COc2ccc(CN)cc23)c1` [Cpd 291, (E)-1-[3-(2-methoxy-ethoxy)-phenylethenyl]carbonyl-5′-aminomethyl-spiro[piperidine-4,3′-(2H)-benzo[b]furan]] gave a 50% inhibitory concentration (IC50) of 400 nM. Compared with the last molecule, the IC50 is about 7.5-fold higher.

In turn, `COc1ccc2[nH]cc(C(=O)N3CCC4(CC3)COc3ccc(CN)cc34)c2c1` [Cpd 238, 1-(5-methoxy-indol-3-yl)carbonyl-5′-aminomethyl-spiro[piperidine-4,3′-(2H)-benzo[b]furan]] registered an IC50 of 210 nM.

In turn, `NCc1ccc2c(c1)C1(CCN(C(=O)/C=C/c3ccccc3O)CC1)CO2` [Cpd 272, (E)-1-(2-hydroxy-phenylethenyl)carbonyl-5′-aminomethyl-spiro[piperidine-4,3′-(2H)-benzo[b]furan]] came in with a concentration for half-maximal inhibition (IC50) of 190 nM.

With `NCc1ccc2c(c1)C1(CCN(C(=O)c3ccc(Cl)c(Cl)c3)CC1)CS2(=O)=O` [Cpd 352, 1-(3,4-dichlorophenyl)carbonyl-5′-aminomethyl-spiro[piperidine-4,3′-(1,1-dioxo-(2H)-benzo[b]thiophene)]], half-maximal inhibition (IC50) was put at 5300 nM.

In the case of `CC(C)(C)c1ccc(C#Cc2ccc(C(=O)N3CCC4(CC3)COc3ccc(CN)cc34)o2)cc1` [Cpd 282, 1-[5-(4-tert-butyl-phenylethynyl)-furan-2-yl]carbonyl-5′-aminomethyl-spiro[piperidine-4,3′-(2H)-benzo[b]furan]], 700 nM corresponded to half-maximal inhibition (IC50).

`NCc1ccc2c(c1)C1(CCN(C(=O)c3cccc(Oc4ccccc4)c3)CC1)CO2` [Cpd 115, 1-(3-phenoxy-phenyl)carbonyl-5′-aminomethyl-spiro[piperidine-4,3′-(2H)-benzo[b]furan]] came in with an IC50 of 240 nM.

In turn, `CSc1sc(C(=O)N2CCC3(CC2)COc2ccc(CN)cc23)c2c1CCCC2` [Cpd 218, 1-(3-methylthio-5,6,7-trihydro-4H-benzo[c]thien-1-yl)carbonyl-5′-aminomethyl-spiro[piperidine-4,3′-(2H)-benzo[b]furan]] displayed an IC50 of 8 nM. This IC50 lies about 30-fold lower than the previous one.

For the molecule `NCc1ccc2c(c1)C1(CCN(C(=O)Cc3cccc(Oc4ccccc4)c3)CC1)CO2` [Cpd 88, 1-(3-phenoxy-benzyl)carbonyl-5′-aminomethyl-spiro[piperidine-4,3′-(2H)-benzo[b]furan]], it took 26 nM to reach half-maximal inhibition (IC50).

As for `NCc1ccc2c(c1)C1(CCN(C(=O)CCc3ccccc3)CC1)CO2` [Cpd 79, 1-phenethylcarbonyl-5′-aminomethyl-spiro[piperidine-4,3′-(2H)-benzo[b]furan]], the concentration for half-maximal inhibition (IC50) worked out at 1400 nM.

Consider `NCc1ccc2c(c1)C1(CCN(C(=O)c3ccc(-c4ccccc4)o3)CC1)CO2` [Cpd 130, 1-(5-phenyl-furan-2-yl)carbonyl-5′-aminomethyl-spiro[piperidine-4,3′-(2H)-benzo[b]furan]], for which the midpoint of inhibition, the IC50, lay at 28 nM.

On to `CCCCSc1sc(C(=O)N2CCC3(CC2)COc2ccc(CN)cc23)c2c1C(=O)CCC2` [Cpd 229, 1-(3-butylthio-4-oxo-5,6,7-trihydro-4H-benzo[c]thien-1-yl)carbonyl-5′-aminomethyl-spiro[piperidine-4,3′-(2H)-benzo[b]furan]], for which the 50% inhibitory concentration (IC50) came out at 5.3 nM. Compared with the last molecule, the IC50 is about 5.3-fold lower.

As for `NCc1ccc2c(c1)C1(CCN(C(=O)c3ccc(C#Cc4ccccc4)o3)CC1)CN2C(=O)c1nnn[nH]1` [Cpd 334, 1-(5-phenylethynyl-furan-2-yl)carbonyl-1′-(1H-tetrazol-5-yl)carbonyl-5′-aminomethyl-spiro[piperidine-4,3′-(2H)-indole]], the IC50 was 47 nM.

In turn, `CNNC(=O)CS(=O)(=O)N1CC2(CCN(C(=O)c3ccc(C#Cc4ccccc4)o3)CC2)c2cc(CN)ccc21` [Cpd 349, 1-(5-phenylethynyl-furan-2-yl)carbonyl-1′-(N′-methylhydrazino-carbonylmethyl)sulfonyl-5′-aminomethyl-spiro[piperidine-4,3′-(2H)-indole]] yielded a half-maximal inhibitory concentration (IC50) of 16 nM.

`CSc1sc(C(=O)N2CCC3(CC2)COc2ccc(CN)cc23)c(-c2ccc(Cl)cc2)c1C#N` [Cpd 202, 1-[3-(4-chloro-phenyl)-4-cyano-5-methylthio-thien-2-yl]carbonyl-5′-aminomethyl-spiro[piperidine-4,3′-(2H)-benzo[b]furan]] had a half-maximal inhibitory concentration (IC50) of 51 nM.

With `Cn1c(C(=O)N2CCC3(CC2)COc2ccc(CN)cc23)cc2ccccc21` [Cpd 193, 1-(1-methyl-indol-2-yl)carbonyl-5′-aminomethyl-spiro[piperidine-4,3′-(2H)-benzo[b]furan]], the IC50 was determined as 360 nM.

With `NCc1ccc2c(c1)C1(CCN(C(=O)c3cc4c(F)cccc4s3)CC1)CO2` [Cpd 168, 1-(4-fluoro-benzo[b]thien-2-yl)carbonyl-5′-aminomethyl-spiro[piperidine-4,3′-(2H)-benzo[b]furan]], half-maximal inhibition (IC50) was put at 48 nM.

On to `NCc1ccc2c(c1)C1(CCN(C(=O)c3ccc(CCl)cc3)CC1)CO2` [Cpd 69, 1-(4-chloromethyl-phenyl)carbonyl-5′-aminomethyl-spiro[piperidine-4,3′-(2H)-benzo[b]furan]], for which 1600 nM corresponded to half-maximal inhibition (IC50).
